Results taken from ChEMBL document CHEMBL3991601, “The target landscape of clinical kinase drugs” (Science, 2017).
pKd: −log10 of the molar value. Calls of active or inactive are those of the source.

Key:
[1] = biological target: T1, Mitogen-activated protein kinase kinase kinase 5 (Homo sapiens, UniProt Q99683)
T1 sequence (Q99683 whole entry): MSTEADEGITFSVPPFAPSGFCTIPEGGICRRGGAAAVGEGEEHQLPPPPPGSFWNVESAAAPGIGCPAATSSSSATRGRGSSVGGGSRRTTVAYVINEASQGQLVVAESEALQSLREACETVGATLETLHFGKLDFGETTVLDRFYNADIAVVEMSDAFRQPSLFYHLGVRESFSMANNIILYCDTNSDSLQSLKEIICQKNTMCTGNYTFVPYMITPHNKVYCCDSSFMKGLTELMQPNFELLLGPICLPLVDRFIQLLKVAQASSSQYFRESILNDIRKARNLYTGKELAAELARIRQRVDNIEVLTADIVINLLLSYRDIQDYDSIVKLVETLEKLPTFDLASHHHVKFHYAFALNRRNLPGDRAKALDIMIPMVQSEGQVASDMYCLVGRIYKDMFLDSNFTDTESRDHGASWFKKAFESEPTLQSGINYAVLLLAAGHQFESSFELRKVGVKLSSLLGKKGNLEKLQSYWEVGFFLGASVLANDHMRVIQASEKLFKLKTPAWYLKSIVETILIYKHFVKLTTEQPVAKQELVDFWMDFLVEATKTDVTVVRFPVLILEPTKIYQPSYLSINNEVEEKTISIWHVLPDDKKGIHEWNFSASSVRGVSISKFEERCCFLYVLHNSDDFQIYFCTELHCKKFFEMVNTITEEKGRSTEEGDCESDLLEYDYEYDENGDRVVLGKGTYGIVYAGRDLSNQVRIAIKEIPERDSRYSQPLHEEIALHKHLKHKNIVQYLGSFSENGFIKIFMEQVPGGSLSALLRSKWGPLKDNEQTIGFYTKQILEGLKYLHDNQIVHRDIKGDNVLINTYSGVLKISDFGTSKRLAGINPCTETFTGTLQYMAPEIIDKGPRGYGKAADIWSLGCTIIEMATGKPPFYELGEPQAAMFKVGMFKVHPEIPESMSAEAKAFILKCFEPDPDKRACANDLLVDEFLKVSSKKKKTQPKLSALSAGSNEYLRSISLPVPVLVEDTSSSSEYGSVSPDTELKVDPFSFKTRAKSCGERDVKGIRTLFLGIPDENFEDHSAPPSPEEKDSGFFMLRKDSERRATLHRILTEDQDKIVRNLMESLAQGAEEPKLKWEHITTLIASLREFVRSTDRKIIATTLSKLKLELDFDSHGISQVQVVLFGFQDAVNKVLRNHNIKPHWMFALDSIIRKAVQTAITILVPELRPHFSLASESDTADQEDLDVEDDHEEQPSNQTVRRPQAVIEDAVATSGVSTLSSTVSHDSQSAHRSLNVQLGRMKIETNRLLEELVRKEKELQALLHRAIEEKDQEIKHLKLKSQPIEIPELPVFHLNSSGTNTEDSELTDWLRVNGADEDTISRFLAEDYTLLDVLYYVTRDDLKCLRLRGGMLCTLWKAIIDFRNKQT

[2] = biological target: Tyrosine-protein kinase Lyn (Homo sapiens, UniProt P07948)
Activin receptor type-1 = biological target: T2, Activin receptor type-1 (Homo sapiens, UniProt Q04771)
T2 sequence (Q04771 whole entry): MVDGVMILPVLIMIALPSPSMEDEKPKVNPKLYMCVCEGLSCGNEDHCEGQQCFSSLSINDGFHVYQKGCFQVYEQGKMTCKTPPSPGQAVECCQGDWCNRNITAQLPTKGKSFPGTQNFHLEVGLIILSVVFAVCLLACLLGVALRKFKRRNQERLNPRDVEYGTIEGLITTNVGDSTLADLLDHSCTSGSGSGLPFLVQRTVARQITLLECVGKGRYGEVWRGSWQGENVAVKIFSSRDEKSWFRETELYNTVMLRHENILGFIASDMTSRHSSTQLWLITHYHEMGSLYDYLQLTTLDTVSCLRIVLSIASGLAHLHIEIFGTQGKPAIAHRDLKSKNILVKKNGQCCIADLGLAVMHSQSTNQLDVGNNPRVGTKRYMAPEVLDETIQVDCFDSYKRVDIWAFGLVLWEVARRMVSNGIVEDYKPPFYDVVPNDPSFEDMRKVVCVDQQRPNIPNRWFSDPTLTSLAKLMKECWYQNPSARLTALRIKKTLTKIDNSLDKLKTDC

[3] = biological target: AP2-associated protein kinase 1 (Homo sapiens, UniProt Q2M2I8)
[4] = biological target: T3, Mitogen-activated protein kinase 15 (Homo sapiens, UniProt Q8TD08)
T3 sequence (Q8TD08 whole entry): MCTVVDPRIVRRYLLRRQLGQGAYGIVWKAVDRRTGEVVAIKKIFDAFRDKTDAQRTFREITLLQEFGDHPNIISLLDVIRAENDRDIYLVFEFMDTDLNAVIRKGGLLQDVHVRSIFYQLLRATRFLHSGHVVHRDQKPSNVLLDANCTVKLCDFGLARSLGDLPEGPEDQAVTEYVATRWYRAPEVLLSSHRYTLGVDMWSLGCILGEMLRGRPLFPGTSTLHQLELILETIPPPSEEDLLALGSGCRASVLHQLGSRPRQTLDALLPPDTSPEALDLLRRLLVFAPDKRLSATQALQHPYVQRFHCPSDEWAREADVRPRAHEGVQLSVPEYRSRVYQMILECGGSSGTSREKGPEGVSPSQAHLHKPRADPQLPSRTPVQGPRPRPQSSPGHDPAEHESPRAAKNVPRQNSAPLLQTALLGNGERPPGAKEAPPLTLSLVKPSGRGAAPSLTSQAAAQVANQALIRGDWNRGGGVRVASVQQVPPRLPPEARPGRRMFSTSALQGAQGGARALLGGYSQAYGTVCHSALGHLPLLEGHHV

[5] = biological target: ATP-dependent RNA helicase DDX3X (Homo sapiens, UniProt O00571)
[6] = biological target: G protein-coupled receptor kinase 6 (Homo sapiens, UniProt P43250)
[7] = biological target: Mitogen-activated protein kinase 7 (Homo sapiens, UniProt Q13164)
Further: in the data inactive means no Kd found up to 30 µM.

ATP-dependent RNA helicase DDX3X, sequence (O00571 whole entry): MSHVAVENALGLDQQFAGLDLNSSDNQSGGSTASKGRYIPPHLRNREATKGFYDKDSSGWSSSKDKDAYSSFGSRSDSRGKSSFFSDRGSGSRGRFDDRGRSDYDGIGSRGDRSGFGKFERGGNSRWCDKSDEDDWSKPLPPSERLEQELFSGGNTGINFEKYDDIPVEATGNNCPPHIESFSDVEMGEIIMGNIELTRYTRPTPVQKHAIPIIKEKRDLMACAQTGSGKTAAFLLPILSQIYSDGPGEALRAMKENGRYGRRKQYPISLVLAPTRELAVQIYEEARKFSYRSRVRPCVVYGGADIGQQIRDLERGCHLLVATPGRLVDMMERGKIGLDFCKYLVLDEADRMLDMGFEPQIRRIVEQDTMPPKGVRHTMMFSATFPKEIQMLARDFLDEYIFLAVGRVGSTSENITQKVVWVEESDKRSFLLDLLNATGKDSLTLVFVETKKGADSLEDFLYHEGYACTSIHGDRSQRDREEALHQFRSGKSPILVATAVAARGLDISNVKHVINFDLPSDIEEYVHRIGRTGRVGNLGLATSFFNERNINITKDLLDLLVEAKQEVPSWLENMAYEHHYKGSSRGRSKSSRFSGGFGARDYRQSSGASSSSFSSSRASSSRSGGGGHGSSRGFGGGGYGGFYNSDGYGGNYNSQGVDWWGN
G protein-coupled receptor kinase 6, sequence (P43250 whole entry): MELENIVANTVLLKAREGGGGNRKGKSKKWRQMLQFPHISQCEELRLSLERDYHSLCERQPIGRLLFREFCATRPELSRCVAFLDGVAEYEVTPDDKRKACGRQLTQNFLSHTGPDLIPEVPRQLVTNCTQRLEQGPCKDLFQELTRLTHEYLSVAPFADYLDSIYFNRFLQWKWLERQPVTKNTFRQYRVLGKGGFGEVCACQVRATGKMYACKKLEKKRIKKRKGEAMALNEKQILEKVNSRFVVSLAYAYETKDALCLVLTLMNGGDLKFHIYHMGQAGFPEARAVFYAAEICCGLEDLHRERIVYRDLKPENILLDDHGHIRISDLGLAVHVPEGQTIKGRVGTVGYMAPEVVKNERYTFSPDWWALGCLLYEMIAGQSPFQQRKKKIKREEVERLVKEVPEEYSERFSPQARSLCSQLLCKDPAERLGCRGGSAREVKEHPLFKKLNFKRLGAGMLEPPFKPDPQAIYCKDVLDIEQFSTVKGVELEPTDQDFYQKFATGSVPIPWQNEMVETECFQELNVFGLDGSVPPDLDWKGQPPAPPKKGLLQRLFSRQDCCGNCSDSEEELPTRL
Mitogen-activated protein kinase 7, sequence (Q13164 whole entry): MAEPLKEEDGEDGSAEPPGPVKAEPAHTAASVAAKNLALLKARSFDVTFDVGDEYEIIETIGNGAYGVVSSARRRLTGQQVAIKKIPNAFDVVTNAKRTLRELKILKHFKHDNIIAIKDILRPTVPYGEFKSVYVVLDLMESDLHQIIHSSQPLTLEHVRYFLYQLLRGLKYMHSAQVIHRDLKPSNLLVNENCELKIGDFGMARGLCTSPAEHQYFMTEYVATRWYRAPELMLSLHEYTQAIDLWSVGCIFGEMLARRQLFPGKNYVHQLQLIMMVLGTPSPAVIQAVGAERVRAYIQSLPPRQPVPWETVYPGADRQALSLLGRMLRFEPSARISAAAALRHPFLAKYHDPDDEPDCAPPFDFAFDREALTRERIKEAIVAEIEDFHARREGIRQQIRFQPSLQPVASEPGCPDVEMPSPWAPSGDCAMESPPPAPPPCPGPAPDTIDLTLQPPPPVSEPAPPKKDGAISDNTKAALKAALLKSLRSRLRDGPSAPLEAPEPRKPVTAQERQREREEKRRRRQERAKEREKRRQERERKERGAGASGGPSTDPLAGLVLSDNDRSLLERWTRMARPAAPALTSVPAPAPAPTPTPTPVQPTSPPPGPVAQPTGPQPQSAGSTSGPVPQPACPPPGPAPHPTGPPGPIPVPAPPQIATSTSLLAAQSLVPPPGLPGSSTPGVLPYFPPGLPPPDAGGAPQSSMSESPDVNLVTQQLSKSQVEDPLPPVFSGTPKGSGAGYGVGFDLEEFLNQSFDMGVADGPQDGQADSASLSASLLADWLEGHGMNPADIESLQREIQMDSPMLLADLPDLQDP
AP2-associated protein kinase 1, sequence (Q2M2I8 whole entry): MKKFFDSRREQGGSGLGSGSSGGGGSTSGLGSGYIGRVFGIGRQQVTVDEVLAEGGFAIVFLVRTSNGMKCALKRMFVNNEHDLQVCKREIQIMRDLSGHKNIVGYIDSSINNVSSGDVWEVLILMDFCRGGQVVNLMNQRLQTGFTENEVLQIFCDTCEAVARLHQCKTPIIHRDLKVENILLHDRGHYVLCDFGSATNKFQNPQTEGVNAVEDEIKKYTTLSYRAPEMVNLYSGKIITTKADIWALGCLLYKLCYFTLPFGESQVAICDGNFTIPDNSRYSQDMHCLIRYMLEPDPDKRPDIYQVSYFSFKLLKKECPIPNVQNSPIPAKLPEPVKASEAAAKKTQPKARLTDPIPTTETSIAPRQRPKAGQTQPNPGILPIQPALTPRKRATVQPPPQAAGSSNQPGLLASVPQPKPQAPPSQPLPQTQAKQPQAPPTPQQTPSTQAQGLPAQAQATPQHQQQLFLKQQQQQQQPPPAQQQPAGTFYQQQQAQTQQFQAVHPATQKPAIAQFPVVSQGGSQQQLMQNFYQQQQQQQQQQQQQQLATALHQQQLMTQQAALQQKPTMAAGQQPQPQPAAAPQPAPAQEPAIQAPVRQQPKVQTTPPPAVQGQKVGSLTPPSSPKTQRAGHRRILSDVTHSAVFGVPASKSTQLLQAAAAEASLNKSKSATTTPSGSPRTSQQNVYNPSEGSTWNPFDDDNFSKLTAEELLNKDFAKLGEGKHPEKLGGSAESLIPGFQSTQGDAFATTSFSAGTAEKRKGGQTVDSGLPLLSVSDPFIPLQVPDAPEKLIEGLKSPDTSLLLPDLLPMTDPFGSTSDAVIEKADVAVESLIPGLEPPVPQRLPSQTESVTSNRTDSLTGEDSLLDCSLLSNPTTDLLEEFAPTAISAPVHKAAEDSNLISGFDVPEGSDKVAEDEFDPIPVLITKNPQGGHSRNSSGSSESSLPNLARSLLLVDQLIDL
Tyrosine-protein kinase Lyn, sequence (P07948 whole entry): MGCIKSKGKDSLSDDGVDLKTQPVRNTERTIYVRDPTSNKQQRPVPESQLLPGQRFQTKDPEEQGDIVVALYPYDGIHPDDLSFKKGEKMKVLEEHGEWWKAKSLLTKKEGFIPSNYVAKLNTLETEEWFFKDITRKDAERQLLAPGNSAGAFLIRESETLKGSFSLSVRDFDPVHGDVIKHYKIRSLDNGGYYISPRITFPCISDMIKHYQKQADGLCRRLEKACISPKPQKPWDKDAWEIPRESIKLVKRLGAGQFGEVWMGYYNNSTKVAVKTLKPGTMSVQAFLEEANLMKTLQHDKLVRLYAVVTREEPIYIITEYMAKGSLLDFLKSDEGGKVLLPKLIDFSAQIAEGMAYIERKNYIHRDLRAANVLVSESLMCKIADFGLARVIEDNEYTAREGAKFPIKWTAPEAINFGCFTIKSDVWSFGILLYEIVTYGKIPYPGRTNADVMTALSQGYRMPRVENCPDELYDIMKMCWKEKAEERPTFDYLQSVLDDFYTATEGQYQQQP

Row | Compound | Kd [1] | Kd [2] | Kd (Activin receptor type-1) | Kd [3] | Kd [4] | Kd [5] | Kd [6] | Kd [7] | pKd [6] | pKd [7]
1 | C[C@@H](Oc1cc(C(=O)Nc2ccc(C(=O)N3CCN(C)CC3)cc2)nnc1N)c1c(Cl)ccc(F)c1Cl | > 30 µM (inactive) | > 30 µM (inactive) | > 30 µM (inactive) | 22.2 µM (active) | > 30 µM (inactive) | > 30 µM (inactive) | > 30 µM (inactive) | > 30 µM (inactive) |  | 
2 | CCNC(=O)C#Cc1ccc2c(c1)NC(=O)/C2=C(\Nc1ccc(CN(C)C)cc1)c1ccccc1 | > 30 µM (inactive) | 0.097 µM (active) | > 30 µM (inactive) | > 30 µM (inactive) | > 30 µM (inactive) | > 30 µM (inactive) | > 30 µM (inactive) | > 30 µM (inactive) |  | 
3 | Cc1nc2cc(-c3nn(C(C)C)c4ncnc(N)c34)ccc2o1 | > 30 µM (inactive) | > 30 µM (inactive) | 0.04 µM (active) | > 30 µM (inactive) | > 30 µM (inactive) | > 30 µM (inactive) | > 30 µM (inactive) | > 30 µM (inactive) |  | 
4 | COCc1c(-c2ccc(NC(=O)Nc3cc(C(F)(F)F)ccc3F)c(F)c2)c2c(N)ncnn2c1CN1CCOCC1 | > 30 µM (inactive) | > 30 µM (inactive) | > 30 µM (inactive) | > 30 µM (inactive) | > 30 µM (inactive) | > 30 µM (inactive) | > 30 µM (inactive) | > 30 µM (inactive) |  | 
5 | Nc1ncnc2c1c(-c1cccc(OCc3ccccc3)c1)cn2[C@H]1C[C@@H](CN2CCC2)C1 [AEW-541] | > 30 µM (inactive) | 2.44 µM (active) | 1.2 µM (active) | > 30 µM (inactive) | > 30 µM (inactive) | > 30 µM (inactive) | > 30 µM (inactive) | > 30 µM (inactive) |  | 
6 | COc1cc(Nc2ncc3c(n2)-c2ccc(Cl)cc2C(c2c(F)cccc2OC)=NC3)ccc1C(=O)O [ALISERTIB] | > 30 µM (inactive) | > 30 µM (inactive) | > 30 µM (inactive) | > 30 µM (inactive) | > 30 µM (inactive) | > 30 µM (inactive) | > 30 µM (inactive) | > 30 µM (inactive) |  | 
7 | O=C(Nc1c[nH]nc1-c1nc2cc(CN3CCOCC3)ccc2[nH]1)NC1CC1 [AT-9283] |  |  | 0.078 µM (active) | 0.017 µM (active) | > 30 µM (inactive) | > 30 µM (inactive) |  | > 30 µM (inactive) | 4.87 | 
8 | C=CC(=O)Nc1cc2c(Nc3ccc(F)c(Cl)c3)ncnc2cc1C#CC(C)(C)N1CCN(C)CC1 [AV-412 FREE BASE] | > 30 µM (inactive) | > 30 µM (inactive) | > 30 µM (inactive) | > 30 µM (inactive) | > 30 µM (inactive) | > 30 µM (inactive) | > 30 µM (inactive) | > 30 µM (inactive) |  | 
9 | CNC(=O)c1ccccc1Sc1ccc2c(/C=C/c3ccccn3)n[nH]c2c1 [AXITINIB] |  |  |  |  |  | > 30 µM (inactive) | > 30 µM (inactive) |  |  | 
10 | Cc1cc(C(=O)NOCCO)c(Nc2ccc(I)cc2F)n(C)c1=O [AZD-8330] | > 30 µM (inactive) | > 30 µM (inactive) | > 30 µM (inactive) | > 30 µM (inactive) | > 30 µM (inactive) | > 30 µM (inactive) | > 30 µM (inactive) | > 30 µM (inactive) |  | 
11 | CCn1c(C(=O)N(C2CC2)C2CC2)cc2c3c(ncn3C)c(Nc3cc(C)n(C)n3)nc21 [BMS-911543] | > 30 µM (inactive) | > 30 µM (inactive) | > 30 µM (inactive) | > 30 µM (inactive) | > 30 µM (inactive) | > 30 µM (inactive) | > 30 µM (inactive) | > 30 µM (inactive) |  | 
12 | COc1cc2ncnc(Oc3cccc(NC(=O)Nc4cc(C(C)(C)C(F)(F)F)on4)c3)c2cc1OC [CEP-32496] | > 30 µM (inactive) | 0.771 µM (active) | > 30 µM (inactive) | > 30 µM (inactive) | > 30 µM (inactive) | > 30 µM (inactive) | > 30 µM (inactive) | > 30 µM (inactive) |  | 
13 | Cc1cc(Nc2ncc(Cl)c(Nc3ccccc3S(=O)(=O)C(C)C)n2)c(OC(C)C)cc1C1CCNCC1 [CERITINIB] | > 30 µM (inactive) | > 30 µM (inactive) | > 30 µM (inactive) | > 30 µM (inactive) | > 30 µM (inactive) | > 30 µM (inactive) | > 30 µM (inactive) | 9.85 µM (active) |  | 
14 | C[C@@H](Oc1cc(-n2cnc3ccc(CN4CCN(C)CC4)cc32)sc1C(N)=O)c1ccccc1C(F)(F)F [GSK-461364] |  |  |  |  |  | > 30 µM (inactive) | > 30 µM (inactive) |  |  | 
15 | CCn1cc(-c2ccnc3[nH]c(-c4cccc(CN(C)C)c4)cc23)c(-c2ccc(NC(=O)N(C)C)cc2)n1 [GSK-1070916] | > 30 µM (inactive) | > 30 µM (inactive) |  | > 30 µM (inactive) | > 30 µM (inactive) | > 30 µM (inactive) | > 30 µM (inactive) | > 30 µM (inactive) |  | 
16 | NC(=O)c1c(OCc2c(F)cc(Br)cc2F)nsc1NC(=O)NCCCCN1CCCC1 [OSI-632] | > 30 µM (inactive) |  |  | > 30 µM (inactive) | > 30 µM (inactive) | > 30 µM (inactive) | > 30 µM (inactive) |  |  | 
17 | CC(=O)NCC(=O)N1[C@@H]2CC[C@H]1c1ccc(Nc3ncc(C(F)(F)F)c(NC4CCC4)n3)cc12 [PF-03814735] |  | > 30 µM (inactive) |  | 0.009 µM (active) | > 30 µM (inactive) | > 30 µM (inactive) | > 30 µM (inactive) |  |  | 5.53
18 | CNC(=O)c1cc(Oc2ccc(NC(=O)Nc3cc(C(C)(C)C)nn3-c3ccc4ncccc4c3)c(F)c2)ccn1 [REBASTINIB] | > 30 µM (inactive) |  | > 30 µM (inactive) | > 30 µM (inactive) | 0.276 µM (active) | > 30 µM (inactive) | > 30 µM (inactive) | > 30 µM (inactive) |  | 
19 | O=C(NOCCO)c1cc(CN2OCCCC2=O)c(F)c(F)c1Nc1ccc(I)cc1F [RO-4987655] |  |  |  |  |  | > 30 µM (inactive) | > 30 µM (inactive) |  |  | 
20 | C[C@@H](NC(=O)c1ncnc(N)c1Cl)c1ncc(C(=O)Nc2cc(C(F)(F)F)c(Cl)cn2)s1 [TOVORAFENIB] | > 30 µM (inactive) | > 30 µM (inactive) | > 30 µM (inactive) | > 30 µM (inactive) | > 30 µM (inactive) | > 30 µM (inactive) |  | > 30 µM (inactive) |  | 
